According to paper PMC6899342 (PeerJ, 2019):
pKd: −log10 of the molar value. Where no end group is shown, it is not given here.

Molecular target: T1, PCV2 Cap protein (Porcine circovirus 2, UniProt O56129)
T1 construct: made in house; host or cells: E. coli BL21 (pET28a-Cap)
Test: biochemical
Assay type: binding, porcine circovirus type II
Details: for kon: pH 7.4, read-out: ka
Protocol: The equilibrium binding constant (KD) of peptides was determined using an Open SPR instrument (Nicoya, Canada). First, purified Cap protein was covalently immobilized on a carboxyl Au colloidal nanoparticles chip. […] Then, all peptides were respectively dissolved in PBS at predetermined concentrations and injected to detect the resonance signal changes. In each cycle, 300 µL of peptide solution was injected into the flow cell of the Cap chip for 5 min. Finally, the data were assessed to determine the association constant (ka, 1/Ms), the dissociation constant (kd, 1/s), the equilibrium binding constant (KD, M), and KD = kd/ka via Trace Drawer 1.7 (Nicoya, Canada).
All the steps were performed according to manufacturer’s instructions. First, the activation of carboxyl chip: the chip is activated by the EDC/NHS reagent in the amine coupling kit. […] The last step is to block the chip with blocking buffer. In every step, The 300 μL sample was flowed through the chip for 5 min at a constant flow rate of 20 μL/min.
Dissociation constant Kd represents the ratio of AB (ie, AB) dissociated in unit time to the initial AB before dissociation, which represents the speed of the dissociation reaction.Equilibrium dissociation constant KD =kd/ka, KD unit is M (mol/L)
1:1 binding interaction model represents the binding mode of ligand and target according to 1:1. The1:1 binding interaction model is a differential equation:
dY/dt = (k a * c - k d )* Y

T1 sequence (O56129 whole entry): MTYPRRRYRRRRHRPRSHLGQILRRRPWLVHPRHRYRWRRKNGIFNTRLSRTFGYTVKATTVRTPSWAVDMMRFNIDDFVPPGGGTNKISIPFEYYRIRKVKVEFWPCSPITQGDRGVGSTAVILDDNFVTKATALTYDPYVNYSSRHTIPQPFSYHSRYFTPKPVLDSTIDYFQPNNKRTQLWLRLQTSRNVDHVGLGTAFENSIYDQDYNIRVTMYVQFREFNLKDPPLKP

Row | Substance | pKd | kon [M⁻¹ s⁻¹]
1 | KWWQSWEW [Peptide L13] | 5.00 | 335
2 | RKHKRWK [Peptide L7] | 5.97 | 856
3 | WQGMMKEE [Peptide L4] | 5.91 | 1920
4 | WQSWEWTG [Peptide L9] | 5.17 | 855
